Experimental data from ChEMBL document CHEMBL1126491, “Dual antagonists of platelet activating factor and histamine. 2. pyridine ring substitution of N-acetyl-4-(8-chloro-5,6-dihydro-11H-benzo[5,6]cyclohepta[1,2-b]pyridin-11-ylidene)piperidines” (Bioorg Med Chem Lett, 1993).

What follows are compounds tested against Histamine H1 receptor (Rattus norvegicus, UniProt P31390) (assay: Ability to displace [3H]-pyrilamine from H1 receptor in rat brain membrane.).
Sequence of Histamine H1 receptor (P31390 whole entry): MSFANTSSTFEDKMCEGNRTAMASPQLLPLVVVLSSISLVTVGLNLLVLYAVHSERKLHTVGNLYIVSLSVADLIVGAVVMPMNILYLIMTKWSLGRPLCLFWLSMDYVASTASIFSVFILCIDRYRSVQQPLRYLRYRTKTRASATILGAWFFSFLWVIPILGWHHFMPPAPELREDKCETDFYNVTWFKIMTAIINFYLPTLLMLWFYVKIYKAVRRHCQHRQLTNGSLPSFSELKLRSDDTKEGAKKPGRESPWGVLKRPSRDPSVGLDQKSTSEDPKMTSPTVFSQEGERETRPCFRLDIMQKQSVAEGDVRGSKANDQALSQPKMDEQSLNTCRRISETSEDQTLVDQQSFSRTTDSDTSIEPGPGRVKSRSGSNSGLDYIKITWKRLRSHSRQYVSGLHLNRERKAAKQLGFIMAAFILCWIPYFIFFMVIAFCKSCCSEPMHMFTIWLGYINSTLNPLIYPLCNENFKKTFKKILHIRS
Assay type: cell membranes
COc1ccc2c(n1)C(=C1CCN(C(C)=O)CC1)c1ccc(Cl)cc1CC2 showed a Ki greater than 10000 nM.
Work on CC(=O)N1CCC(=C2c3ccc(Cl)cc3CCc3c(Cl)ccnc32)CC1 yielded a Ki of 240 nM.
CC(=O)N1CCC(=C2c3ccc(Cl)cc3CCc3cc(-c4ccccc4)cnc32)CC1 showed a Ki of 230 nM.
For CC(=O)N1CCC(=C2c3ccc(Cl)cc3CCc3ccc(O)nc32)CC1, the Ki was greater than 10000 nM.
Compound CC(=O)N1CCC(=C2c3ccc(Cl)cc3CCc3ccc(Cl)nc32)CC1 has a Ki of 1360 nM.
With CC(=O)N1CCC(=C2c3ccc(Cl)cc3CCc3cc(Cl)cnc32)CC1 the Ki was 100 nM.
CC(=O)N1CCC(=C2c3ccc(Cl)cc3CCc3cc(O)cnc32)CC1 showed a Ki of 1580 nM.
CC(=O)c1cnc2c(c1)CCc1cc(Cl)ccc1C2=C1CCN(C(C)=O)CC1 gave a Ki of 1160 nM.
Work on CC(=O)N1CCC(=C2c3ccc(Cl)cc3CCc3cc(C=O)cnc32)CC1 yielded a Ki of 700 nM.
For COc1ccnc2c1CCc1cc(Cl)ccc1C2=C1CCN(C(C)=O)CC1, the Ki was greater than 10000 nM.
CSc1cnc2c(c1)CCc1cc(Cl)ccc1C2=C1CCN(C(C)=O)CC1 showed a Ki of 210 nM.
Compound CC(=O)N1CCC(=C2c3ccc(Cl)cc3CCc3c(C)ccnc32)CC1 has a Ki of 230 nM.
Work on CC(=O)N1CCC(=C2c3ccc(Cl)cc3CCc3cc(CO)cnc32)CC1 yielded a Ki of 20 nM.
With CC(=O)N1CCC(=C2c3ccc(Cl)cc3CCc3cc(C(C)O)cnc32)CC1 (centres undefined) the Ki was 40 nM.
For CC(=O)N1CCC(=C2c3ccc(Cl)cc3CCc3cc(C)cnc32)CC1, the Ki was 70 nM.
Compound COc1cnc2c(c1)CCc1cc(Cl)ccc1C2=C1CCN(C(C)=O)CC1 has a Ki of 430 nM.
CC(=O)N1CCC(=C2c3ccc(Cl)cc3CCc3ccc(C)nc32)CC1 was tested, and the Ki was 1030 nM.
For CC(=O)N1CCC(=C2c3ccc(Cl)cc3CCc3c(O)ccnc32)CC1, the Ki was greater than 10000 nM.
For CC(=O)N1CCC(=C2c3ccc(Cl)cc3CCc3cc(Br)cnc32)CC1, the Ki was 10 nM.

Species on record: Homo sapiens
Assay: Concentration for inhibition of PAF-induced platelet aggregation in human platelet-rich plasma
Assay type: functional
COc1ccc2c(n1)C(=C1CCN(C(C)=O)CC1)c1ccc(Cl)cc1CC2 was tested, and the IC50 was 6000 nM.
For CC(=O)N1CCC(=C2c3ccc(Cl)cc3CCc3c(Cl)ccnc32)CC1, the IC50 was 8000 nM.
With CC(=O)N1CCC(=C2c3ccc(Cl)cc3CCc3cccnc32)CC1 [SCH-37370] the IC50 was 610 nM.
Compound CC(=O)N1CCC(=C2c3ccc(Cl)cc3CCc3cc(-c4ccccc4)cnc32)CC1 has an IC50 of 1080 nM.
CC(=O)N1CCC(=C2c3ccc(Cl)cc3CCc3ccc(O)nc32)CC1 gave an IC50 of 6750 nM.
CC(=O)N1CCC(=C2c3ccc(Cl)cc3CCc3ccc(Cl)nc32)CC1 was tested, and the IC50 was 610 nM.
CC(=O)N1CCC(=C2c3ccc(Cl)cc3CCc3cc(Cl)cnc32)CC1 showed an IC50 of 940 nM.
CC(=O)N1CCC(=C2c3ccc(Cl)cc3CCc3cc(O)cnc32)CC1 showed an IC50 of 4130 nM.
CC(=O)c1cnc2c(c1)CCc1cc(Cl)ccc1C2=C1CCN(C(C)=O)CC1 was tested, and the IC50 was 2080 nM.
Work on CC(=O)N1CCC(=C2c3ccc(Cl)cc3CCc3cc(C=O)cnc32)CC1 yielded an IC50 of 2730 nM.
In the case of COc1ccnc2c1CCc1cc(Cl)ccc1C2=C1CCN(C(C)=O)CC1, the IC50 is reported as 3040 nM.
With CSc1cnc2c(c1)CCc1cc(Cl)ccc1C2=C1CCN(C(C)=O)CC1 the IC50 was 600 nM.
CC(=O)N1CCC(=C2c3ccc(Cl)cc3CCc3c(C)ccnc32)CC1 was tested, and the IC50 was 6000 nM.
For CC(=O)N1CCC(=C2c3ccc(Cl)cc3CCc3cc(CO)cnc32)CC1, the IC50 was 690 nM.
CC(=O)N1CCC(=C2c3ccc(Cl)cc3CCc3cc(C(C)O)cnc32)CC1 (centres undefined) was tested, and the IC50 was 1070 nM.
CC(=O)N1CCC(=C2c3ccc(Cl)cc3CCc3cc(C)cnc32)CC1 was tested, and the IC50 was 340 nM.
COc1cnc2c(c1)CCc1cc(Cl)ccc1C2=C1CCN(C(C)=O)CC1 gave an IC50 of 1480 nM.
CC(=O)N1CCC(=C2c3ccc(Cl)cc3CCc3ccc(C)nc32)CC1 was tested, and the IC50 was 280 nM.
Work on CC(=O)N1CCC(=C2c3ccc(Cl)cc3CCc3c(O)ccnc32)CC1 yielded an IC50 of no less than 50000 nM.
CC(=O)N1CCC(=C2c3ccc(Cl)cc3CCc3cc(Br)cnc32)CC1 showed an IC50 of 2290 nM.
